Test results reported in PMC7360687, “The Regulator PltZ Regulates a Putative ABC Transporter System PltIJKNOP of Pseudomonas aeruginosa ATCC 27853 in Response to the Antimicrobial 2,4-Diacetylphloroglucinol” (Frontiers in Microbiology, 2020).

Molecular target: T1, PltZ
T1 construct: full gene cloned in pET-28b-derived vector, E. coli BL21 (DE3), Ni-NTA purified (His tag implied)
Test: isothermal titration calorimetry
Design: species or system Pseudomonas aeruginosa
Conditions: 25 °C; 20 mM Tris pH 8.0, 100 mM NaCl; independent binding model; read-out: binding constant

SMILES: CC(=O)c1c(O)cc(O)c(C(C)=O)c1O [2,4-diacetylphloroglucinol]
- Kd: ~190 nM
